{"source": "patent US12577245B2", "about": "“Sulfonyl benzamide derivatives as Bcl-2 inhibitors” (ASCENTAGE PHARMA (SUZHOU) CO., LTD., priority 2021, dated 2026)", "key": {"Bcl-2 WT": {"target": "Bcl-2 WT (Homo sapiens, UniProt P10415)", "sequence (P10415 whole entry)": "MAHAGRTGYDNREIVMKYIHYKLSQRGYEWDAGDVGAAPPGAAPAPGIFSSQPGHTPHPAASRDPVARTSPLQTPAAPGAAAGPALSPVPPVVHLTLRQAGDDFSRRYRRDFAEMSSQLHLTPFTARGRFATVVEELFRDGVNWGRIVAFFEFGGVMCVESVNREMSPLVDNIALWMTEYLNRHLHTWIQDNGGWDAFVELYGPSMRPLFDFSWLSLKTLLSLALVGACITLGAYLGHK", "test": "Bcl-2 WT inhibition, fluorescence polarization (Flu-BIM tracer) binding assay", "details": "FP; 20 nM Bcl2, 5 nM Flu-BIM, 1 h incubation; read-out: Bcl-2 w.t. (FP)"}, "MV-4-11 cells": {"test_system": "MV-4-11 cells", "test": "CCK-8 cell viability assay in MV-4-11 cells", "assay_type": "cell-based", "details": "Homo sapiens, MV4-11, 72 h, 10% FBS, 3 days", "summary_of_the_method": "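IC50 values come from vehicle-normalized CCK-8 absorbance at 450 nm, read 1–4 h after reagent addition. Before that, MV-4-11 cells seeded at 20000 per well were cultured 3 days at 37 °C with a compound dilution series.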"}, "RS4; 11Bcl-2-G101V cells": {"test_system": "RS4; 11Bcl-2-G101V cells", "test": "CellTiter-Glo (CTG) cell viability assay in RS4;11-Bcl-2-G101V cells", "assay_type": "cell-based", "details": "72 h, 10% FBS, 3 days", "summary_of_the_method": "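Luminescent ATP read-out (CellTiter-Glo) after 3-day compound treatment at 37 °C gave viability relative to vehicle, from which IC50 was fitted. Mutant Bcl-2 RS4;11 cells were seeded at 10000 per well and rested 4 h before dosing.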"}}, "data": [{"smiles": "CC1(C)CCC(CN2CCN(c3ccc(C(=O)NS(=O)(=O)c4ccc(NC[C@H]5CC[C@](C)(O)CC5)c([N+](=O)[O-])c4)c(Oc4cnc5[nH]ccc5c4)c3)CC2)=C(c2cc(-c3ccc(C(C)(C)C#N)cc3)cs2)C1", "note": "[Example 56, 2-((1H-pyrrolo[2,3-b]pyridin-5-yl)oxy)-4-(4-((2-(4-(4-(2-cyanopropan-2-yl)phenyl)thiophen-2-yl)-4,4-dimethylcyclohex-1-en-1-yl)methyl)piperazin-1-yl)-N-((4-((((1r,4r)-4-hydroxy-4-methylcyclohexyl)methyl)amino)-3-nitrophenyl)sulfonyl)benzamide]", "values": [{"measurement": "IC50", "setting": "Bcl-2 WT", "value": 16.1, "unit": "nM"}, {"measurement": "IC50", "setting": "MV-4-11 cells", "value": 68, "unit": "nM"}, {"measurement": "IC50", "setting": "RS4; 11Bcl-2-G101V cells", "value": 1910, "unit": "nM"}]}, {"smiles": "CN(C)c1ccccc1-c1csc(C2=C(CN3CCN(c4ccc(C(=O)NS(=O)(=O)c5ccc(NC[C@H]6COCCO6)c([N+](=O)[O-])c5)c(Oc5cnc6[nH]ccc6c5)c4)CC3)CCC(C)(C)C2)c1", "note": "[Example 58, (S)—N-((4-(((1,4-dioxan-2-yl)methyl)amino)-3-nitrophenyl)sulfonyl)-2-((1H-pyrrolo[2,3-b]pyridin-5-yl)oxy)-4-(4-((2-(4-(2-(dimethylamino)phenyl)thiophen-2-yl)-4,4-dimethylcyclohex-1-en-1-yl)methyl)piperazin-1-yl)benzamide]", "values": [{"measurement": "IC50", "setting": "Bcl-2 WT", "value": 20.1, "unit": "nM"}, {"measurement": "IC50", "setting": "MV-4-11 cells", "value": 178, "unit": "nM"}, {"measurement": "IC50", "setting": "RS4; 11Bcl-2-G101V cells", "value": 3050, "unit": "nM"}]}, {"smiles": "CC1(C)CCC(CN2CCN(c3ccc(C(=O)NS(=O)(=O)c4ccc(NC[C@H]5CC[C@](C)(O)CC5)c([N+](=O)[O-])c4)c(Oc4cnc5[nH]ccc5c4)c3)CC2)=C(c2cc(-c3ccc(C(C)(C)O)cc3)cs2)C1", "note": "[Example 59, 2-((1H-pyrrolo[2,3-b]pyridin-5-yl)oxy)-N-((4-((((1r,4r)-4-hydroxy-4-methylcyclohexyl)methyl)amino)-3-nitrophenyl)sulfonyl)-4-(4-((2-(4-(4-(2-hydroxypropan-2-yl)phenyl)thiophen-2-yl)-4,4-dimethylcyclohex-1-en-1-yl)methyl)piperazin-1-yl)benzamide]", "values": [{"measurement": "IC50", "setting": "Bcl-2 WT", "value": 29.3, "unit": "nM"}, {"measurement": "IC50", "setting": "MV-4-11 cells", "value": 2, "unit": "nM"}, {"measurement": "IC50", "setting": "RS4; 11Bcl-2-G101V cells", "value": 290, "unit": "nM"}]}, {"smiles": "CC1(C)CCC(CN2CCN(c3ccc(C(=O)NS(=O)(=O)c4ccc(NC[C@H]5CC[C@](C)(O)CC5)c([N+](=O)[O-])c4)c(Oc4cnc5[nH]ccc5c4)c3)CC2)=C(c2cc(-c3ccc(C(O)(C(F)(F)F)C(F)(F)F)cc3)cs2)C1", "note": "[Example 60, 2-((1H-pyrrolo[2,3-b]pyridin-5-yl)oxy)-4-(4-((2-(4-(4-(1,1,1,3,3,3-hexafluoro-2-hydroxypropan-2-yl)phenyl)thiophen-2-yl)-4,4-dimethylcyclohex-1-en-1-yl)methyl)piperazin-1-yl)-N-((4-((((1r,4r)-4-hydroxy-4-methylcyclohexyl)methyl)amino)-3-nitrophenyl)sulfonyl)benzamide]", "values": [{"measurement": "IC50", "setting": "Bcl-2 WT", "value": 20.4, "unit": "nM"}, {"measurement": "IC50", "setting": "MV-4-11 cells", "value": 303, "unit": "nM"}, {"measurement": "IC50", "setting": "RS4; 11Bcl-2-G101V cells", "value": 3410, "unit": "nM"}]}, {"smiles": "CC1(C)CCC(CN2CCN(c3ccc(C(=O)NS(=O)(=O)c4ccc(NC[C@H]5CC[C@](C)(O)CC5)c([N+](=O)[O-])c4)c(Oc4cnc5[nH]ccc5c4)c3)CC2)=C(c2cc(-c3ccc(C(C)(C)O)cc3F)cs2)C1", "note": "[Example 62, 2-((1H-pyrrolo[2,3-b]pyridin-5-yl)oxy)-4-(4-((2-(4-(2-fluoro-4-(2-hydroxypropan-2-yl)phenyl)thiophen-2-yl)-4,4-dimethylcyclohex-1-en-1-yl)methyl)piperazin-1-yl)-N-((4-((((1r,4r)-4-hydroxy-4-methylcyclohexyl)methyl)amino)-3-nitrophenyl)sulfonyl)benzamide]", "values": [{"measurement": "IC50", "setting": "Bcl-2 WT", "value": 15.7, "unit": "nM"}, {"measurement": "IC50", "setting": "MV-4-11 cells", "value": 4, "unit": "nM"}, {"measurement": "IC50", "setting": "RS4; 11Bcl-2-G101V cells", "value": 140, "unit": "nM"}]}, {"smiles": "CC1(C)CCC(CN2CCN(c3ccc(C(=O)NS(=O)(=O)c4ccc(NC[C@H]5COCCO5)c([N+](=O)[O-])c4)c(Oc4cnc5[nH]ccc5c4)c3)CC2)=C(c2cc(-c3c(F)cc(C(C)(C)O)cc3F)cs2)C1", "note": "[Example 64, (S)—N-((4-(((1,4-dioxan-2-yl)methyl)amino)-3-nitrophenyl)sulfonyl)-2-((1H-pyrrolo[2,3-b]pyridin-5-yl)oxy)-4-(4-((2-(4-(2,6-difluoro-4-(2-hydroxypropan-2-yl)phenyl)thiophen-2-yl)-4,4-dimethylcyclohex-1-en-1-yl)methyl)piperazin-1-yl)benzamide]", "values": [{"measurement": "IC50", "setting": "Bcl-2 WT", "value": 16.4, "unit": "nM"}, {"measurement": "IC50", "setting": "MV-4-11 cells", "value": 7, "unit": "nM"}, {"measurement": "IC50", "setting": "RS4; 11Bcl-2-G101V cells", "value": 30, "unit": "nM"}]}, {"smiles": "CCC(O)(CC)c1cc(F)c(-c2csc(C3=C(CN4CCN(c5ccc(C(=O)NS(=O)(=O)c6ccc(NC[C@H]7CC[C@](C)(O)CC7)c([N+](=O)[O-])c6)c(Oc6cnc7[nH]ccc7c6)c5)CC4)CCC(C)(C)C3)c2)c(F)c1", "note": "[Example 67, 2-((1H-pyrrolo[2,3-b]pyridin-5-yl)oxy)-4-(4-((2-(4-(2,6-difluoro-4-(3-hydroxypentan-3-yl)phenyl)thiophen-2-yl)-4,4-dimethylcyclohex-1-en-1-yl)methyl)piperazin-1-yl)-N-((4-((((1r,4r)-4-hydroxy-4-methylcyclohexyl)methyl)amino)-3-nitrophenyl)sulfonyl)benzamide]", "values": [{"measurement": "IC50", "setting": "Bcl-2 WT", "value": 27.2, "unit": "nM"}, {"measurement": "IC50", "setting": "MV-4-11 cells", "value": 251, "unit": "nM"}, {"measurement": "IC50", "setting": "RS4; 11Bcl-2-G101V cells", "value": 840, "unit": "nM"}]}, {"smiles": "[2H]C([2H])([2H])C(O)(c1cc(F)c(-c2csc(C3=C(CN4CCN(c5ccc(C(=O)NS(=O)(=O)c6ccc(NC[C@H]7CC[C@](C)(O)CC7)c([N+](=O)[O-])c6)c(Oc6cnc7[nH]ccc7c6)c5)CC4)CCC(C)(C)C3)c2)c(F)c1)C([2H])([2H])[2H]", "note": "[Example 68, 2-((1H-pyrrolo[2,3-b]pyridin-5-yl)oxy)-4-(4-((2-(4-(2,6-difluoro-4-(2-hydroxypropan-2-yl-1,1,1,3,3,3-d6)phenyl)thiophen-2-yl)-4,4-dimethylcyclohex-1-en-1-yl)methyl)piperazin-1-yl)-N-((4-((((1r,4r)-4-hydroxy-4-methylcyclohexyl)methyl)amino)-3-nitrophenyl)sulfonyl)benzamide]", "values": [{"measurement": "IC50", "setting": "Bcl-2 WT", "value": 23.2, "unit": "nM"}, {"measurement": "IC50", "setting": "MV-4-11 cells", "value": 9, "unit": "nM"}, {"measurement": "IC50", "setting": "RS4; 11Bcl-2-G101V cells", "value": 21, "unit": "nM"}]}, {"smiles": "CC1(C)CCC(CN2CCN(c3ccc(C(=O)NS(=O)(=O)c4ccc(NC[C@H]5CC[C@](C)(O)CC5)c([N+](=O)[O-])c4)c(Oc4cnc5[nH]ccc5c4)c3)CC2)=C(c2cc(-c3c(F)cc(C(C)(O)C4CC4)cc3F)cs2)C1", "note": "(stereo partly drawn) [Example 69, 2-((1H-pyrrolo[2,3-b]pyridin-5-yl)oxy)-4-(4-((2-(4-(4-(1-cyclopropyl-1-hydroxyethyl)-2,6-difluorophenyl)thiophen-2-yl)-4,4-dimethylcyclohex-1-en-1-yl)methyl)piperazin-1-yl)-N-((4-((((1r,4r)-4-hydroxy-4-methylcyclohexyl)methyl)amino)-3-nitrophenyl)sulfonyl)benzamide]", "values": [{"measurement": "IC50", "setting": "Bcl-2 WT", "value": 24.8, "unit": "nM"}, {"measurement": "IC50", "setting": "MV-4-11 cells", "value": 473, "unit": "nM"}, {"measurement": "IC50", "setting": "RS4; 11Bcl-2-G101V cells", "value": 300, "unit": "nM"}]}, {"smiles": "CC1(C)CCC(CN2CCN(c3ccc(C(=O)NS(=O)(=O)c4ccc(NC[C@H]5CC[C@](C)(O)CC5)c([N+](=O)[O-])c4)c(Oc4cnc5[nH]ccc5c4)c3)CC2)=C(c2cc(-c3cccc(C(C)(C)O)c3)cs2)C1", "note": "[Example 70, 2-((1H-pyrrolo[2,3-b]pyridin-5-yl)oxy)-N-((4-((((1r,4r)-4-hydroxy-4-methylcyclohexyl)methyl)amino)-3-nitrophenyl)sulfonyl)-4-(4-((2-(4-(3-(2-hydroxypropan-2-yl)phenyl)thiophen-2-yl)-4,4-dimethylcyclohex-1-en-1-yl)methyl)piperazin-1-yl)benzamide]", "values": [{"measurement": "IC50", "setting": "Bcl-2 WT", "value": 19.8, "unit": "nM"}, {"measurement": "IC50", "setting": "MV-4-11 cells", "value": 95, "unit": "nM"}, {"measurement": "IC50", "setting": "RS4; 11Bcl-2-G101V cells", "value": 1460, "unit": "nM"}]}, {"smiles": "CC1(C)CCC(CN2CCN(c3ccc(C(=O)NS(=O)(=O)c4ccc(NC[C@H]5CC[C@](C)(O)CC5)c([N+](=O)[O-])c4)c(Oc4cnc5[nH]ccc5c4)c3)CC2)=C(c2cc(-c3ccc(C(C)(C)O)c(F)c3)cs2)C1", "note": "[Example 71, 2-((1H-pyrrolo[2,3-b]pyridin-5-yl)oxy)-4-(4-((2-(4-(3-fluoro-4-(2-hydroxypropan-2-yl)phenyl)thiophen-2-yl)-4,4-dimethylcyclohex-1-en-1-yl)methyl)piperazin-1-yl)-N-((4-((((1r,4r)-4-hydroxy-4-methylcyclohexyl)methyl)amino)-3-nitrophenyl)sulfonyl)benzamide]", "values": [{"measurement": "IC50", "setting": "Bcl-2 WT", "value": 15.4, "unit": "nM"}, {"measurement": "IC50", "setting": "MV-4-11 cells", "value": 12, "unit": "nM"}, {"measurement": "IC50", "setting": "RS4; 11Bcl-2-G101V cells", "value": 330, "unit": "nM"}]}, {"smiles": "CC(CO)c1ccc(-c2csc(C3=C(CN4CCN(c5ccc(C(=O)NS(=O)(=O)c6ccc(NC[C@H]7CC[C@](C)(O)CC7)c([N+](=O)[O-])c6)c(Oc6cnc7[nH]ccc7c6)c5)CC4)CCC(C)(C)C3)c2)c(F)c1", "note": "(stereo partly drawn) [Example 72, 2-((1H-pyrrolo[2,3-b]pyridin-5-yl)oxy)-4-(4-((2-(4-(2-fluoro-4-(1-hydroxypropan-2-yl)phenyl)thiophen-2-yl)-4,4-dimethylcyclohex-1-en-1-yl)methyl)piperazin-1-yl)-N-((4-((((1r,4r)-4-hydroxy-4-methylcyclohexyl)methyl)amino)-3-nitrophenyl)sulfonyl)benzamide]", "values": [{"measurement": "IC50", "setting": "Bcl-2 WT", "value": 20.5, "unit": "nM"}, {"measurement": "IC50", "setting": "MV-4-11 cells", "value": 12, "unit": "nM"}, {"measurement": "IC50", "setting": "RS4; 11Bcl-2-G101V cells", "value": 440, "unit": "nM"}]}, {"smiles": "CC(C)(O)Cc1ccc(-c2csc(C3=C(CN4CCN(c5ccc(C(=O)NS(=O)(=O)c6ccc(NC[C@H]7CC[C@](C)(O)CC7)c([N+](=O)[O-])c6)c(Oc6cnc7[nH]ccc7c6)c5)CC4)CCC(C)(C)C3)c2)c(F)c1", "note": "[Example 73, 2-((1H-pyrrolo[2,3-b]pyridin-5-yl)oxy)-4-(4-((2-(4-(2-fluoro-4-(2-hydroxy-2-methylpropyl)phenyl)thiophen-2-yl)-4,4-dimethylcyclohex-1-en-1-yl)methyl)piperazin-1-yl)-N-((4-((((1r,4r)-4-hydroxy-4-methylcyclohexyl)methyl)amino)-3-nitrophenyl)sulfonyl)benzamide]", "values": [{"measurement": "IC50", "setting": "Bcl-2 WT", "value": 23.7, "unit": "nM"}, {"measurement": "IC50", "setting": "MV-4-11 cells", "value": 8, "unit": "nM"}, {"measurement": "IC50", "setting": "RS4; 11Bcl-2-G101V cells", "value": 490, "unit": "nM"}]}]}
